Assay results published in patent US11672959B2, “Expandable member systems and methods for drug delivery” (Intersect ENT, Inc., priority 2019, dated 2023).

Columns and labels:
[1] = in vitro release rates for expandable members having varying amounts of crystalline mometasone furoate (FIG. 4); format: physicochemical
Description: FIG. 4 is a graph comparing the in vitro release rates for expandable members having varying amounts of crystalline mometasone furoate. The amount of crystalline and amorphous drug provided in the drug layer will generally vary depending on the active agent employed, target tissue being treated, therapeutic drug level desired in the target tissue, and/or the drug release profile desired. For example, the ratio of amorphous to crystalline drug in the drug layer can be about 1:3, 1:2, 1:1, 2:1, or 3:1. A higher amorphous to crystalline drug ratio can lead to quicker tissue absorption due to the higher solubility of amorphous drug. In turn, a higher crystalline to amorphous drug ratio can lead to longer residence time of the drug on tissue. […] Thus, a combination of amorphous and crystalline drug in the drug layer can provide immediate release of the active agent to begin treatment of a nose, ear, or throat condition, as well as sustained release of the active agent into the target tissue, as illustrated by the moderate in vitro release rates for drug layers subjected to solvent vapor annealing (SVA) in FIG. 4. In some variations, the drug layer is formed to include about 60% of the active agent as drug crystals. In one variation, the drug layer is formed to include mometasone furoate, where about 60% of the mometasone furoate is in crystalline form. The ratio of crystalline to amorphous drug in the drug layer can be adjusted during the drug layering process onto the expandable member, e.g., during the solvent vapor annealing process, as further described below, or during sterilization.

[2] = MF released from drug layered balloon on inflation in sheep frontal sinus ostia; format: in vivo
Procedure: (§1) The amount of mometasone furoate transferred to the ostia (total MF released) was measured after inflation of balloons having a drug layer including the listed dose of mometasone furoate drug crystals and poly(ethylene glycol) and polysorbate as the excipients.
Expandable members were made by spray coating 6 mm×20 mm semi-compliant balloons with a drug layer formulation. The drug layer formulation included either a 1500 μg or 3000 μg dose of mometasone furoate, poly(ethylene glycol), and a polysorbate. The drug layered balloons were then exposed in an acetone solvent vapor for 30 minutes.
(§2) In this Example, drug layered balloons were made according to Example 1 and used to dilate sheep frontal ostia.

[3] = tissue concentration of mometasone furoate after balloon expansion in Eustachian tubes (LCMS); format: in vivo, domestic sheep; details: sheep, Eustachian tube mucosa, 1500 μg balloon expanded to 12 atm, read-out: maximum mometasone furoate tissue concentration
Procedure: The Eustachian tubes of eight domestic sheep were accessed transnasally using balloon catheters having drug layers containing 1500 μg of mometasone furoate. The balloon catheters were made as described in Example 1. A singe balloon catheter was expanded to 12 atm of pressure to deliver the mometasone furoate crystals to Eustachian tube tissue and to dilate each contralateral Eustachian tube at its proximal opening. The animals were sacrificed at either 7 days or 30 days after balloon expansion, and mucosa from each Eustachian tube collected and frozen. Mometasone furoate concentration was then quantified using liquid chromatography mass spectrometry (LCMS).

[4] = plasma MF concentration after balloon expansions in sheep frontal sinus ostia; format: in vivo
[5] = tissue MF concentration after balloon expansion in sheep frontal sinus ostia; details: for concentration at 30 days / concentration at 7 days / concentration at 14 days / concentration at 1 hour: sheep; for concentration at 1 hour: Approx. 1 hour after inflation
Procedure: as §1, §2

[6] = frontal sinus ostia tissue, 3000 μg, Average Tissue MF Concentrations, Frontal Sinus Ostia, MF Dose 3000 μg, Study Arm 1, 2
[7] = nasal passage tissue, 3000 μg, Average Tissue MF Concentrations, Nasal Passage, MF Dose 3000 μg, Study Arm 1, 2

SMILES: C[C@@H]1C[C@H]2[C@@H]3CCC4=CC(=O)C=C[C@]4(C)[C@@]3(Cl)[C@@H](O)C[C@]2(C)[C@@]1(OC(=O)c1ccco1)C(=O)CCl [MF, mometasone furoate]
- in vitro release rate ([1]; drug layer contains the active agent only as crystals (100% crystals)): slowest
- in vitro release rate ([1]; drug layer contains the active agent only in amorphous form (0% crystals)): fastest
- in vitro release rates ([1]; drug layers subjected to solvent vapor annealing (SVA), amorphous and crystalline drug): moderate
- Total MF Released ([2]; Dose 1500 μg, 36.4% drug crystals, crystal size 78.7 μm, PEG and polysorbate excipients): 350 µg
- Total MF Released ([2]; Dose 1500 μg, 62.5% drug crystals, crystal size 128.1 μm): 478 µg
- Total MF Released ([2]; Dose 3000 μg, 60.4% drug crystals, crystal size 91.1 μm): 1778 µg
- Total MF Released ([2]; Dose 3000 μg, 67.4% drug crystals, crystal size 132.6 μm): 1058 µg
- MF Release (% MF Dose) ([2]; MF Dose 1500 μg, 1st inflation, Study Arm 2 (treatment)): 35 % MF Dose
- Average MF Release per Inflation ([2]; MF Dose 1500 μg, 1st inflation, Study Arm 2 (treatment), n=4): 524 µg
- MF Release (% MF Dose) ([2]; MF Dose 1500 μg, 2nd inflation, Study Arm 1 (treatment)): 12 % MF Dose
- Average MF Release per Inflation ([2]; MF Dose 1500 μg, 2nd inflation, Study Arm 1 (treatment), n=4): 176 µg
- Average MF Release per Inflation ([2]; MF Dose 1500 μg, Average over first two inflations): 350 µg
- Total MF Released ([2]; MF Dose 1500 μg, Table 7): 350 µg
- Average % MF Release per Inflation ([2]; MF Dose 3000 μg, Study Arm 1, two expansions): 30%
- Average MF Release per Inflation ([2]; MF Dose 3000 μg, Study Arm 1, two expansions, n=32 devices): 889 µg
- Average % MF Release per Inflation ([2]; MF Dose 3000 μg, Study Arm 2 (bloody sheep frontal sinus ostia)): 28%
- Average MF Release per Inflation ([2]; MF Dose 3000 μg, Study Arm 2 (bloody sheep frontal sinus ostia), n=4 devices): 854 µg
- concentration at 7 days ([3]; 7 days): 47000 ng/g
- concentration at 30 days ([3]; 30 days): 200 ng/g
- MF Concentration Plasma ([4]; MF Dose 1500 μg, 30 days, analytical range 20.0-1000.0 pg/mL): BLQ (Below Limit of Quantitation (≤20.0 pg/mL))
- plasma levels ([4]; MF dose 1500 μg, 30 days post the two expansions): below the limit of quantitation
- average tissue MF concentrations for the frontal sinus ostia relative to therapeutic levels ([5]; MF Dose 3000 μg, all time points): at or above therapeutic levels
- concentration at 30 days ([5]; frontal sinus ostia tissue, 1500 μg, Average 30 day tissue MF Concentration in Sinus Ostia, 36.4% drug crystals, crystal size 78.7 μm, 30 days): 5000 ng/g
- concentration at 30 days ([5]; frontal sinus ostia tissue, 1500 μg, Average 30 day tissue MF Concentration in Sinus Ostia, 62.5% drug crystals, crystal size 128.1 μm, 30 days): 1000 ng/g
- concentration at 30 days ([5]; frontal sinus ostia tissue, 1500 μg, MF Concentration Frontal Sinus Ostia Tissue, MF Dose 1500 μg, explant timepoint 30 days, two expansions): 5000 ng/g
- concentration at 30 days ([5]; frontal sinus ostia tissue, 1500 μg, average tissue MF concentrations for the frontal sinus ostia, MF dose 1500 μg, 30 days, compared with therapeutic level): > 100 ng/g
- concentration at 30 days ([5]; frontal sinus ostia tissue, 1500 μg, mometasone furoate concentrations in tissue at 30 days, crystals sized less than 80 μm, less than 60% of the drug layer containing drug crystals): ~5000 ng/g
- concentration at 30 days ([5]; frontal sinus ostia tissue, 3000 μg, Average 30 day tissue MF Concentration in Sinus Ostia, 60.4% drug crystals, crystal size 91.1 μm, 30 days): 100 ng/g
- concentration at 30 days ([5]; frontal sinus ostia tissue, 3000 μg, Average 30 day tissue MF Concentration in Sinus Ostia, 67.4% drug crystals, crystal size 132.6 μm, 30 days): 2000 ng/g
- concentration at 7 days [5, 6]: 9890 ng/g
- concentration at 14 days [5, 6]: 1250 ng/g
- concentration at 30 days ([5]; frontal sinus ostia tissue, 3000 μg, Average Tissue MF Concentrations, Frontal Sinus Ostia, MF Dose 3000 μg, Study Arm 1, 2, 30 days): 100 ng/g
- concentration at 1 hour [5, 6]: 142000 ng/g
- concentration at 30 days ([5]; in vivo, 30 day tissue concentrations (in sheep frontal sinus ostia)): ≥ 100 ng/g
- concentration at 7 days [5, 7]: 60 ng/g
- concentration at 14 days [5, 7]: 20 ng/g
- concentration at 30 days ([5]; nasal passage tissue, 3000 μg, Average Tissue MF Concentrations, Nasal Passage, MF Dose 3000 μg, Study Arm 1, 2, 30 days): 1380 ng/g
- concentration at 1 hour [5, 7]: 4730 ng/g
